Reference: patent publication US7576217B2, “Quinolines as allosteric enhancers of the GABAB receptors” (Hoffman-La Roche Inc., priority 2004, dated 2009)
Read-outs that look alike come from different tables or passages of the source.

Columns and labels:
human GABABR1aR2a = biological target: T1, human GABABR1aR2a (Homo sapiens, UniProt O75899+Q9UBS5); experiment: Intracellular Ca2+ mobilization assay in CHO-GABABR1aR2a-Gα16 cell (FLIPR); format: cell-based; conditions: for GABA shift Log [EC50(GABA + 10 μM cp)/EC50(GABA alone)]: GABA 0.0003-30 μM with and without 10 μM enhancer; for Emax: enhancer 0.001-30 μM in presence of 10 nM GABA (EC10), applied 15 min before GABA, read-out: Emax (%) at 10 nM GABA alone = 0% 10 μM GABA alone = 100%; for EC50: enhancer concentration-response in presence of 10 nM GABA (EC10)
T1 construct: expressed in transfected cells
T1 sequence (Q9UBS5 15-961 limits assumed): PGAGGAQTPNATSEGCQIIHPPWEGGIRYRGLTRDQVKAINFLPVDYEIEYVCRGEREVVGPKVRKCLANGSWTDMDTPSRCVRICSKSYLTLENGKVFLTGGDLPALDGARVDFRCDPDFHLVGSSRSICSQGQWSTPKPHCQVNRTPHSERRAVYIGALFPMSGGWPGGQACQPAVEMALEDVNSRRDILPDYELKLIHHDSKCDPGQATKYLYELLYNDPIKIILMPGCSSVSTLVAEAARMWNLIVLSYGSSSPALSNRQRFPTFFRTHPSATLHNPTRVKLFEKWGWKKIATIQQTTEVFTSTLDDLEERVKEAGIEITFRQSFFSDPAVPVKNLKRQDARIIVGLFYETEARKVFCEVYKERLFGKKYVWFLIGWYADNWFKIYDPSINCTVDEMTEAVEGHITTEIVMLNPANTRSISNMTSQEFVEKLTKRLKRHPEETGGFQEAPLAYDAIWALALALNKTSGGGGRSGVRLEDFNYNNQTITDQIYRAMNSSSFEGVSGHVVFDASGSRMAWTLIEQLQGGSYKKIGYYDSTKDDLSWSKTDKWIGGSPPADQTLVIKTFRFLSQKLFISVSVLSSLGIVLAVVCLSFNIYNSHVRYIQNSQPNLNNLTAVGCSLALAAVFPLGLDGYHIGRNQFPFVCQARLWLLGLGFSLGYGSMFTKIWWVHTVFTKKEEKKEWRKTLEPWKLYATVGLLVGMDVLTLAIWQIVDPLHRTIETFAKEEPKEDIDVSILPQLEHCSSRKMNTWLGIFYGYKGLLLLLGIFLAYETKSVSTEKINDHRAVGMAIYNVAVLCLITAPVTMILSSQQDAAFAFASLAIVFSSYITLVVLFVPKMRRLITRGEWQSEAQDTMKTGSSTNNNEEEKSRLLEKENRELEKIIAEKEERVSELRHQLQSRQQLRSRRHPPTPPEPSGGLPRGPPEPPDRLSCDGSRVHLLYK
T1 sequence (O75899 42-941): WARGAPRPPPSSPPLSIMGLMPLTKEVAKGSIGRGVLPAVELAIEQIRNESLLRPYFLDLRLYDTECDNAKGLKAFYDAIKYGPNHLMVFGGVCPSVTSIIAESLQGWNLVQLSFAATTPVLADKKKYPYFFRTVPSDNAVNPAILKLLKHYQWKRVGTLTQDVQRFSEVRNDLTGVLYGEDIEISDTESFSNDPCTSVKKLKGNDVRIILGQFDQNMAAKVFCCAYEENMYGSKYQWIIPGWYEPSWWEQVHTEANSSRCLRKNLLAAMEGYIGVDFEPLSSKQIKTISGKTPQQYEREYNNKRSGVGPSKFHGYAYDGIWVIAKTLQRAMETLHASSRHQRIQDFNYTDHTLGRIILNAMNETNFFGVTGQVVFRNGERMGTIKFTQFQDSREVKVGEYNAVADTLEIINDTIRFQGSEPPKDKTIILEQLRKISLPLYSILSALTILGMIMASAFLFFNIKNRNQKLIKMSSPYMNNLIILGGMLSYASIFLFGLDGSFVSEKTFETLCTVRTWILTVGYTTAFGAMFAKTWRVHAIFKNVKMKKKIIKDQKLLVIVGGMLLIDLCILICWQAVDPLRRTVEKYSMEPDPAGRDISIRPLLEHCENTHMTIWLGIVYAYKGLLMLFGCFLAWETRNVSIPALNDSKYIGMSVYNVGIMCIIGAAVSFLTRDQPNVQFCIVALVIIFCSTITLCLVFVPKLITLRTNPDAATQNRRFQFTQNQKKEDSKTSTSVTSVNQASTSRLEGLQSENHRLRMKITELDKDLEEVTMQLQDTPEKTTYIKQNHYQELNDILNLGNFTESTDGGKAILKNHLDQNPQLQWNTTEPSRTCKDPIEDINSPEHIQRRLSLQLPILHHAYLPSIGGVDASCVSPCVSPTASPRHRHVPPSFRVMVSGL
Protocol: Intracellular Ca^2+ Mobilization Assay
The Chinese Hamster Ovary (CHO) cells stably expressing human GABABR1aR2a and Gα16 were seeded at 5×10^4 cells/well in the poly-D-lysine treated, 96-well, black/clear-bottomed plates (BD Biosciences, Palo Alto, Calif.). 24 h later, the cells were loaded for 90 min at 37° C. with 4 μM Flou-4 acetoxymethyl ester (Catalog No. F-14202, Molecular Probes, Eugene, Oreg.) in loading buffer (1×HBSS, 20 mM HEPES, 2.5 mM Probenecid). Hanks' Balanced Salt Solution (HBSS) (10×) (catalog No. 14065-049) and HEPES (1M) (catalog No. 15630-056) were purchased from Invitrogen, Carlsbad, Calif. Probenecid (250 mM) (catalog No. P8761) was from Sigma, Buchs, Switzerland. The cells were washed five times with loading buffer to remove excess dye and intracellular calcium mobilization, [Ca^2+]i were measured using a Fluorometric Imaging Plate Reader (FLIPR, Molecular Devices, Menlo Park, Calif.) as described previously (Porter et al., Br. J. Pharmacol., 128, 13-20, 1999). The enhancers were applied 15 min before the application of the GABA. For GABA shift assay, concentration-response curves of GABA (0.0003-30 μM) were determined in the absence and presence of […] enhancer. The GABA-shift is defined as Log [EC50 (GABA+10 μM enhancer)/EC50 (GABA alone)]. The % maximum enhancing effect (% Emax) and potency (EC50 value) of each enhancer was determined from concentration-response curve of the enhancer (0.001-30 μM) in the presence of 10 nM GABA (EC10). Responses were measured as peak increase in fluorescence minus basal, normalized to the maximal stimulatory effect induced by 10 μM GABA alone (considered 100%) and 10 nM GABA alone (considered 0%). The data were fitted with the equation Y=100+(Max−100)/(1+(EC50/[drug])^n) where Max is the maximum effect, EC50 the concentration eliciting a half-maximum effect and n the Hill slope.

[1] = PO, cited from earlier work
[2] = rats; cited from earlier work
[3] = cited from earlier work

Row | Compound | GABA shift Log [EC50(GABA + 10 μM cp)/EC50(GABA alone)] (human GABABR1aR2a) | Emax (human GABABR1aR2a) [%] | EC50 (human GABABR1aR2a) [µM] | further results
1 | Cc1nc2ccc(Br)cc2c(-c2ccc(F)cc2)c1C(=O)C1CC1 [Example 56, [6-Bromo-4-(4-fluoro-phenyl)-2-methyl-quinolin-3-yl]-cyclopropyl-methanone] | −0.90 | 58 | 2.2 | –
2 | NCC(CC(=O)O)c1ccc(Cl)cc1 (stereo not drawn) [Baclofen, β-chlorophenyl GABA] | – | – | – | effect on spontaneous locomotor activity, rotarod, body temperature and traction test ([1]; 2.5-15 mg/kg): showed these side effects
3 | Cc1nc2cc3c(cc2c(-c2ccccc2)c1C(=O)C(F)(F)F)OC(F)(F)O3 [Example 19, 1-(2,2-Difluoro-6-methyl-8-phenyl-[1,3]dioxolo[4,5-g]quinolin-7-yl)-2,2,2-trifluoro-ethanone] | −0.70 | 63 | 0.9 | –
4 | Cc1nc2ccc(Br)cc2c(-c2ccccc2)c1C(=O)C(F)(F)F [Example 3, 1-(6-Bromo-2-methyl-4-phenyl-quinolin-3-yl)-2,2,2-trifluoro-ethanone] | −1.20 | 124 | 0.8 | –
5 | CSc1nc(NC2CCCC2)c([N+](=O)[O-])c(NC2CCCC2)n1 [GS39783, N,N_-dicyclopentyl-2-methylsulfanyl-5-nitro-pyrimidine-4,6-diamine] | – | – | – | decreasing cocaine self-administration [2]: effective; tolerance after chronic treatment ([3]; 21 days, 10 mg/kg, P.O., once daily): No tolerance; anxiolytic-like effects ([3]; elevated plus maze (rat), elevated zero maze (mice and rats), stress-induced hyperthermia (mice)): exhibited anxiolytic-like effects; effect on spontaneous locomotor activity, rotarod, body temperature and traction test ([1]; 0.1-200 mg/kg): had no effect
6 | CC(=O)c1c(C)nc2ccc(OC(F)(F)F)cc2c1-c1cccc(Cl)c1 [Example 15, 1-[4-(3-Chloro-phenyl)-2-methyl-6-trifluoromethoxy-quinolin-3-yl]-ethanone] | −1.15 | 67 | 1.6 | –
7 | Cc1nc2ccc(N3CCCCC3)cc2c(-c2ccc(F)cc2)c1C(=O)C(F)(F)F [Example 33, 2,2,2-Trifluoro-1-[4-(4-fluoro-phenyl)-2-methyl-6-piperidin-1-yl-quinolin-3-yl]-ethanone] | −0.90 | 62 | 0.33 | –
8 | CC(C)(CO)Cc1cc(C(C)(C)C)c(O)c(C(C)(C)C)c1 [CGP7930, 2,6-di-tert-butyl-4-(3-hydroxy-2,2-dimethyl-propyl)-phenol] | – | – | – | decreasing cocaine self-administration [2]: effective
9 | Cc1nc2ccc(OC(F)(F)F)cc2c(-c2ccccc2)c1C(=O)C(F)(F)F [Example 11, 2,2,2-Trifluoro-1-(2-methyl-4-phenyl-6-trifluoromethoxy-quinolin-3-yl)-ethanone] | −1.00 | 65 | 0.8 | –
